Here are results for 5 compounds from ChEMBL document CHEMBL1121424, “Orally active cephalosporins and penicillins” (J Med Chem, 1980).

Converted amounts (≈) assume the structure as drawn.

As usually defined, the MIC is the smallest concentration in the dilution series that meets the test's criterion for growth inhibition. Low values mean greater potency, high ones weaker potency. By Tmax is commonly meant the time at which the peak concentration occurs. A word on the ED50: it is the midpoint of the dose-response relation.

The subject of data set [1] is Staphylococcus aureus. As to the kind of experiment: Tested for inhibition of visible growth of Staphylococcus aureus, benzyl-penicillin sensitive. The data set is classed as functional.
The nature of the next data set: in vivo. The conditions noted are these: mouse, po, 43 mg/kg.
Data set [2] has as its system Streptococcus pneumoniae. Kind of data set: Tested for inhibition of visible growth of Streptococcus pneumoniae. Type of data set: functional.
The subject of data set [3] is Staphylococcus aureus. As to the kind of experiment: Tested for inhibition of visible growth of Staphylococcus aureus. Type of data set: functional.
The test system of another data set is Enterococcus faecalis. Kind of data set: Tested for inhibition of visible growth of Streptococcus faecalis. Type of data set: functional.
Data set [4] deals with Escherichia coli. As to the kind of experiment: Tested for inhibition of visible growth of Escherichia coli. The data set is classed as functional.
The next data set relates to Klebsiella pneumoniae. Kind of data set: Tested for inhibition of visible growth of Klebsiella pneumoniae. Type of data set: functional.
The test system of the next data set is Enterobacter cloacae. Kind of data set: Tested for inhibition of visible growth of Enterobacter cloacae. Type of data set: functional.
In data set [5] the test system is Streptococcus pyogenes. As to the kind of experiment: Tested for inhibition of visible growth of Streptococcus pyogenes. The data set is classed as functional.
A short description of data set [6]: Tested for inhibition of visible growth of Salmonella schottmuelleri. The data set is classed as functional.
Another data set relates to Klebsiella aerogenes. Kind of data set: Tested for inhibition of visible growth of Enterobacter aerogenes. The data set is classed as functional.
Another data set deals with Proteus mirabilis. Kind of data set: Tested for inhibition of visible growth of Proteus mirabilis. Type of data set: functional.
Data set [7] concerns Staphylococcus aureus. As to the kind of experiment: Tested for the antimicrobial activity against Staphylococcus aureus, benzyl-penicillin sensitive in mice, perorally. Type of data set: functional. The conditions noted are these: po.
Data set [8] has as its system Streptococcus pyogenes. Kind of data set: (§1) Tested for the antimicrobial activity against Streptococcus pyogenes in mice. The data set is classed as functional.
The test system of data set [9] is Staphylococcus aureus. Kind of data set: Tested for the antimicrobial activity against Staphylococcus aureus. Type of data set: functional.
The subject of data set [10] is Streptococcus pyogenes. The description is as §1. Type of data set: functional. This is another data set of the same source.
For data set [11], the species on record is Mus musculus. As to the kind of experiment: Tested for the antimicrobial activity against Staphylococcus aureus, benzyl-penicillin resistant in mice, perorally. The data set is classed as functional. The conditions noted are these: po.
The test system of data set [12] is Streptococcus pneumoniae. As to the kind of experiment: (§2) Tested for the antimicrobial activity against Streptococcus pneumoniae in mice. The data set is classed as functional.
In data set [13] the test system is Streptococcus pneumoniae. Described as §2. Type of data set: functional. The source holds these as a separate data set.
Data set [14] is described as follows: (§3) Tested for the antimicrobial activity against Salmonella schottmuelleri in mice. Type of data set: functional.
The subject of data set [15] is Mus musculus. Kind of data set: Tested for the antimicrobial activity against Streptococcus pyogenes in mice, subcutaneously. The data set is classed as functional. The conditions noted are these: sc.
In data set [16] the test system is Escherichia coli. As to the kind of experiment: Tested for the antimicrobial activity against Escherichia coli in mice. The data set is classed as functional.
The test system of data set [17] is Escherichia coli. Kind of data set: Tested for the antimicrobial activity against Escherichia coli in mice perorally. Type of data set: functional. The conditions noted are these: po.
A short description of data set [18]: as §3. The data set is classed as functional. This is another data set of the same source.
The test system of data set [19] is Mus musculus. As to the kind of experiment: Tested for the antimicrobial activity against Streptococcus pyogenes (ST139) in mice, subcutaneously. Type of data set: functional. Particulars: sc.
The species named for data set [20] is Mus musculus. Kind of data set: Tested for the antimicrobial activity against Streptococcus pneumoniae (D137) in mice, perorally. The data set is classed as functional. Particulars: po.
The species named for data set [21] is Mus musculus. As to the kind of experiment: Tested for the antimicrobial activity against Streptococcus pyogenes (St141) in mice, perorally. Type of data set: functional. The conditions noted are these: po.
Data set [22] deals with Mus musculus. As to the kind of experiment: Tested for the antimicrobial activity against Streptococcus pneumoniae (D815) in mice, subcutaneously. The data set is classed as functional. Particulars: sc.
Data set [23] deals with Mus musculus. Kind of data set: Tested for the antimicrobial activity against Streptococcus pyogenes (St141) in mice, subcutaneously. Particulars: sc. The data set is classed as functional.
Data set [24] is filed under the species Mus musculus. As to the kind of experiment: Tested for the antimicrobial activity against Staphylococcus aureus (M240) in mice, perorally. The data set is classed as functional. Particulars: po.
Data set [25] has as its system Mus musculus. Kind of data set: Tested for the antimicrobial activity against Streptococcus pneumoniae (D137) in mice, subcutaneously. Type of data set: functional. The conditions noted are these: sc.
In data set [26] the test system is Mus musculus. Kind of data set: Tested for the antimicrobial activity against Staphylococcus aureus (M202) in mice, subcutaneously. Type of data set: functional. The conditions noted are these: sc.
The species named for data set [27] is Mus musculus. As to the kind of experiment: Tested for the antimicrobial activity against Streptococcus pneumoniae (D815) in mice, perorally. The conditions noted are these: po. The data set is classed as functional.
The species entered for data set [28] is Mus musculus. Kind of data set: Tested for the antimicrobial activity against Streptococcus pyogenes (ST139) in mice, perorally. Type of data set: functional. The conditions noted are these: po.
Data set [29] concerns Mus musculus. Kind of data set: Tested for the antimicrobial activity against Staphylococcus aureus (M240) in mice, subcutaneously. The conditions noted are these: sc. Type of data set: functional.
For a further data set, the system named is Pseudomonas aeruginosa. Kind of data set: Tested for inhibition of visible growth of Pseudomonas aeruginosa. Type of data set: functional.
The species entered for data set [30] is Mus musculus. Kind of data set: Tested for the antimicrobial activity against Staphylococcus aureus (M202) in mice, perorally. The data set is classed as functional. Particulars: po.

Description for in vivo: Tested for the peak time in mice following 43 mg/kg oral dose of cephalosporin

For `CC1=C(C(=O)O)N2C(=O)[C@@H](NC(=O)[C@H](N)c3ccccc3)[C@H]2SC1` [CEPHALEXIN ANHYDROUS], the MIC is 0.8 µg/mL (≈ 2.3 µM) against Staphylococcus aureus [1]; 1.6 µg/mL (≈ 4.61 µM) in the data set on Streptococcus pneumoniae [2]; 3.1 µg/mL (≈ 8.92 µM) in the data set with Staphylococcus aureus [3]; at least 100 µg/mL against Enterococcus faecalis; 6.2 µg/mL (≈ 17.8 µM) in the data set with Escherichia coli [4]; 3.1 µg/mL (≈ 8.92 µM) against Klebsiella pneumoniae. In addition, the MIC with Enterobacter cloacae is 25 µg/mL (≈ 72 µM); in the data set on Streptococcus pyogenes [5], 0.4 µg/mL (≈ 1.15 µM); in data set [6], 3.1 µg/mL (≈ 8.92 µM); against Klebsiella aerogenes, 25 µg/mL (≈ 72 µM); in the data set with Proteus mirabilis it was 12.5 µg/mL (≈ 36 µM). Further, in “in vivo”, the Tmax was 15 min.
Take `CC1=C(C(=O)O)N2C(=O)C(NC(=O)[C@H](N)c3ccc4c(c3)OCCO4)C2SC1` (stereo not given in full): the ED50 was determined as 0.5 mg/kg with Staphylococcus aureus [7]; 1 mg/kg in the data set with Streptococcus pyogenes [8]; 1.5 mg/kg in the data set with Staphylococcus aureus [9]; 0.81 mg/kg in the data set on Streptococcus pyogenes [10]; 8.3 mg/kg in the data set listed under Mus musculus [11]; 15 mg/kg in the data set on Streptococcus pneumoniae [12]. Besides, the 50% effect level with Streptococcus pneumoniae [13] (ED50) was put at a dose of 14 mg/kg. In addition, the MIC in the data set with Staphylococcus aureus [1] is 0.8 µg/mL (≈ 1.97 µM); against Streptococcus pneumoniae [2], 0.8 µg/mL (≈ 1.97 µM); in the data set with Staphylococcus aureus [3] it was 3.1 µg/mL (≈ 7.65 µM); in the data set with Enterococcus faecalis it was over 100 µg/mL; in the data set on Escherichia coli [4], over 100 µg/mL; in the data set with Klebsiella pneumoniae, 100 µg/mL (≈ 247 µM). Moreover, the MIC with Enterobacter cloacae was over 100 µg/mL; in the data set on Streptococcus pyogenes [5] it was 0.4 µg/mL (≈ 0.987 µM); in data set [6], 50 µg/mL (≈ 123 µM); in the data set with Klebsiella aerogenes it was over 100 µg/mL; against Proteus mirabilis, over 100 µg/mL.
As to `NC(C(=O)NC1C(=O)N2C(C(=O)O)=C(CSc3cn[nH]n3)CS[C@H]12)c1ccc2c(c1)CCO2` (stereo not given in full), the MIC was determined as 0.4 µg/mL (≈ 0.819 µM) in the data set with Staphylococcus aureus [1]; 0.1 µg/mL (≈ 0.205 µM) against Streptococcus pneumoniae [2]; 1.6 µg/mL (≈ 3.27 µM) against Staphylococcus aureus [3]; 100 µg/mL (≈ 205 µM) in the data set on Enterococcus faecalis; 12.5 µg/mL (≈ 25.6 µM) against Escherichia coli [4]; 6.2 µg/mL (≈ 12.7 µM) against Klebsiella pneumoniae. The minimum inhibitory concentration (MIC) was determined as 50 µg/mL (≈ 102 µM) in the data set on Enterobacter cloacae; 0.1 µg/mL (≈ 0.205 µM) against Streptococcus pyogenes [5]; 3.1 µg/mL (≈ 6.35 µM) in data set [6]; 25 µg/mL (≈ 51.2 µM) in the data set with Klebsiella aerogenes; 100 µg/mL (≈ 205 µM) in the data set on Proteus mirabilis. Moreover, the ED50 in [14] was 30 mg/kg; with Mus musculus [15], 0.19 mg/kg; with Escherichia coli [16], 11 mg/kg; with Streptococcus pyogenes [8], 0.27 mg/kg; with Escherichia coli [17], 19 mg/kg; in [18] it was over 40 mg/kg.
As for `CC1(C)SC2C(NC(=O)C(N)c3ccc4c(c3)OCO4)C(=O)N2C1C(=O)O` (stereo not given), the MIC in the data set on Staphylococcus aureus [1] is 0.1 µg/mL (≈ 0.254 µM); in the data set with Streptococcus pneumoniae [2], at most 0.03 µg/mL; in the data set with Staphylococcus aureus [3], 100 µg/mL (≈ 254 µM); with Enterococcus faecalis it was 3.1 µg/mL (≈ 7.88 µM); in the data set on Escherichia coli [4], 25 µg/mL (≈ 63.5 µM); in the data set with Klebsiella pneumoniae, 6.2 µg/mL (≈ 15.8 µM). Moreover, the MIC against Pseudomonas aeruginosa is over 100 µg/mL; in the data set on Enterobacter cloacae, over 100 µg/mL; against Streptococcus pyogenes [5] it was at most 0.03 µg/mL; in [6], 1.6 µg/mL (≈ 4.07 µM); against Klebsiella aerogenes it was over 100 µg/mL; in the data set on Proteus mirabilis, 25 µg/mL (≈ 63.5 µM). Further, the ED50 with Mus musculus [19] worked out at 0.06 mg/kg; in the data set listed under Mus musculus [20] it was 0.35 mg/kg; in the data set filed under Mus musculus [21], 0.22 mg/kg; in the data set with Mus musculus [22], 0.078 mg/kg; in the data set with Mus musculus [23], 0.13 mg/kg; in the data set listed under Mus musculus [24], 0.32 mg/kg. Further, the ED50 in the data set on Mus musculus [25] was 0.16 mg/kg; with Mus musculus [26], 0.53 mg/kg; in the data set listed under Mus musculus [27] it was 0.25 mg/kg; in the data set listed under Mus musculus [28], 0.29 mg/kg; in the data set on Mus musculus [29] it was under 0.063 mg/kg; in the data set filed under Mus musculus [30] it was 0.25 mg/kg.
Regarding `CC1(C)S[C@@H]2[C@H](NC(=O)[C@H](N)c3ccc(O)cc3)C(=O)N2[C@H]1C(=O)O` [AMOXICILLIN], the MIC in the data set on Staphylococcus aureus [1] is 0.1 µg/mL (≈ 0.274 µM); in the data set with Streptococcus pneumoniae [2], at most 0.03 µg/mL; in the data set with Staphylococcus aureus [3] it was 100 µg/mL (≈ 274 µM); with Enterococcus faecalis it was 1.6 µg/mL (≈ 4.38 µM); in the data set with Escherichia coli [4] it was 6.2 µg/mL (≈ 17 µM); in the data set with Klebsiella pneumoniae, 0.8 µg/mL (≈ 2.19 µM). Further, the MIC is over 100 µg/mL against Pseudomonas aeruginosa; over 100 µg/mL in the data set with Enterobacter cloacae; at most 0.03 µg/mL with Streptococcus pyogenes [5]; 0.4 µg/mL (≈ 1.09 µM) in [6]; over 100 µg/mL in the data set with Klebsiella aerogenes; 0.4 µg/mL (≈ 1.09 µM) against Proteus mirabilis. The ED50 in the data set with Mus musculus [19] stood at 0.063 mg/kg; in the data set listed under Mus musculus [20] it was 0.25 mg/kg; in the data set filed under Mus musculus [21] it was 0.08 mg/kg; in the data set with Mus musculus [22], 0.05 mg/kg; in the data set on Mus musculus [23], 0.06 mg/kg; in the data set listed under Mus musculus [24] it was 0.31 mg/kg. Besides, the ED50 in the data set on Mus musculus [25] was 0.14 mg/kg; in the data set with Mus musculus [26] it was 0.62 mg/kg; in the data set listed under Mus musculus [27], 0.13 mg/kg; in the data set listed under Mus musculus [28], 0.073 mg/kg; with Mus musculus [29], 0.074 mg/kg; in the data set filed under Mus musculus [30] it was 0.62 mg/kg.
